Assay [1] concerns Candida glabrata (ACPF3309). The settings on record: Nakaseomyces glabratus, read-out: MIC99 Candida glabrata.
The test system of the next assay is C. neoformans (F10025). The settings on record: Cryptococcus neoformans, read-out: MIC99 C. neoformans.
In assay [2] the test system is Rhizopus arrhizus (NEQAS12.35321). The conditions noted are these: read-out: MIC99 Rhizopus arrhizus.
Assay [3] relates to Escherichia coli (ATCC 25922). The assay can be described thus: Antibacterial MIC, broth microdilution (CLSI). The class given is cell-based. The settings on record: Escherichia coli, ATCC25922; read-out: MIC80 E. coli.
The test system of assay [4] is Enterococcus faecalis (ATCC 51299). The experiment in a line: Antibacterial MIC, broth microdilution (CLSI). The settings on record: for MIC80: Enterococcus faecalis, ATCC51299, read-out: MIC80 E. faecalis. The class given is cell-based.
A further assay relates to T. vaginalis. The experiment in a line: Trichomonas resorufin assay. The class given is cell-based. The settings on record: for IC50: Trichomonas vaginalis, read-out: IC50 T. vaginalis; for T. vaginalis Selectivity Indices, Group: SI, IC50 (μM)/IC50 (μM), HEK293 cytotoxicity.
Assay [5] has as its system PolyAU double stranded RNA. The assay can be described thus: Fluorescence intercalator displacement (FID) assay, SYBR-safe probe. The conditions noted are these: 20 μM compound, 30° C., lower % = stronger binding. A digest of the protocol: (§1)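 Probe displacement was measured at 30 °C in 1 mM phosphate pH 7.4 containing SybrSafe (12500-fold dilution), 3.76 ng/mL nucleic acid (salmon dsDNA or polyAU dsRNA) and 20 μM compound. Fluorescence loss is normalised between probe-only and probe-plus-nucleic-acid controls.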

The test system of assay [6] is Genomic double stranded DNA (salmon). Described as above. The settings on record: 20 μM compound, 30° C., lower % = stronger binding. A digest of the protocol:
as §1

For assay [7], the system named is Staphylococcus aureus (ATCC 43300). The experiment in a line: Antibacterial MIC, broth microdilution (CLSI). The class given is cell-based. The settings on record: for MIC80: Staphylococcus aureus, ATCC43300, read-out: MIC80 S. aureus; for S. aureus Selectivity Indices, Group / S. aureus Selectivity Index (SI): SI, IC50 (μM)/MIC80 (μM), HEK293 cytotoxicity; for S. aureus Selectivity Index (SI): numeric value.

The test system of a further assay is Candida auris (H.17.157). The conditions noted are these: Candidozyma auris, read-out: MIC99 Candida auris.
Assay [8] has as its system A. fumigatus A1160 (MFIG001). The conditions noted are these: Aspergillus fumigatus, read-out: MIC99 A. fumigatus A1160.
Procedure: The Minimum Inhibitory Concentration (MIC, at 99% inhibition) of the compounds was determined using the broth microdilution method as recommended by EUCAST (EUCAST Definitive Document E.DEF 9.3.2, Method for the determination of broth dilution minimum inhibitory concentrations of antifungal agents for conidia forming moulds and EUCAST Definitive Document E.DEF 7.3.2 Method for the determination of broth dilution minimum inhibitory concentrations of antifungal agents for yeasts).

Values after ≈ are worked out from the molar mass of the structure shown. Like-named read-outs stand apart in the source and are kept apart here. Where only a bound is given, the exact number is not on record here.

As to `[H]/N=C(\CCNC(=O)c1cc(NC(=O)c2cc(NC(=O)c3ccc(C=Cc4ccc5nonc5c4)cc3)cn2C)cn1C)N1CCOCC1` [Ib6, (E)-4-(4-(2-(benzo[c][1,2,5]oxadiazol-5-yl)vinyl)benzamido)-N-(5-((3-imino-3-morpholinopropyl)carbamoyl)-1-methyl-1H-pyrrol-3-yl)-1-methyl-1H-pyrrole-2-carboxamide], the MIC99 in assay [1] was 25 to 50 µg/mL (≈ 38.5 to 77 µM); in the assay on C. neoformans (F10025), 25 to 50 µg/mL (≈ 38.5 to 77 µM); in assay [2] it was 5 to 25 µg/mL (≈ 7.7 to 38.5 µM). Further, the MIC80 was > 100 µM in assay [3], 25 to 100 µM (≈ 16.2 to 65 µg/mL) in [4] and 5 to 25 µM (≈ 3.25 to 16.2 µg/mL) in assay [7]. Also, in the assay with T. vaginalis, the IC50 is > 50 µM. Moreover, the “% Normalised Fluorescence with polyAU RNA” value in assay [5] is on record as 49%. Besides, the “% Normalised Fluorescence with gDNA” value in assay [6] worked out at 11%.

As for `CCCCCNC(=N)CCNC(=O)c1cc(NC(=O)c2cc(NC(=O)c3ccc(/C=C/c4cnc5ccccc5c4)cc3)cn2C)cn1C` [Ia35, (E)-N-(3-imino-3-(pentylamino)propyl)-1-methyl-4-(1-methyl-4-(4-(2-(quinolin-3-yl)vinyl)benzamido)-1H-pyrrole-2-carboxamido)-1H-pyrrole-2-carboxamide], the MIC99 was 5 to 25 µg/mL (≈ 7.59 to 37.9 µM) in assay [1]; 25 to 50 µg/mL (≈ 37.9 to 75.9 µM) in the assay with C. neoformans (F10025); > 50 µg/mL with Candida auris (H.17.157); > 50 µg/mL in [2]; > 50 µg/mL in [8]. Besides, the MIC80 was > 100 µM in assay [3], 5 to 25 µM (≈ 3.29 to 16.5 µg/mL) in [4] and < 5 µM in assay [7]. The IC50 in the assay on T. vaginalis lay in the range of 1 to 5 µM. In addition, the “% Normalised Fluorescence with polyAU RNA” value in assay [5] is reported as 3%. The “% Normalised Fluorescence with gDNA” value in assay [6] is 21%.

Take `[H]/N=C(\CCNC(=O)c1cc(NC(=O)c2cc(NC(=O)c3ccc(C=Cc4ccc5nonc5c4)cc3)cn2C)cn1C)N1CCSCC1` [Ib8, (E)-4-(4-(2-(benzo[c][1,2,5]oxadiazol-5-yl)vinyl)benzamido)-N-(5-((3-imino-3-thiomorpholinopropyl)carbamoyl)-1-methyl-1H-pyrrol-3-yl)-1-methyl-1H-pyrrole-2-carboxamide]: the MIC99 in assay [1] is < 5 µg/mL; with C. neoformans (F10025), 5 to 25 µg/mL (≈ 7.51 to 37.5 µM); in assay [2], 5 to 25 µg/mL (≈ 7.51 to 37.5 µM); in assay [8] it was 5 to 25 µg/mL (≈ 7.51 to 37.5 µM). The MIC80 in assay [3] was > 100 µM; in assay [4] it was < 5 µM; in [7] it was < 5 µM. Also, the IC50 in the assay on T. vaginalis was in the range of 1 to 5 µM. Moreover, the “% Normalised Fluorescence with polyAU RNA” value in assay [5] stood at 4%. The “% Normalised Fluorescence with gDNA” value in assay [6] is 15%.

Consider `Cn1cc(NC(=O)c2cc(NC(=O)c3ccc(/C=C/c4cnc5ccccc5c4)cc3)cn2C)cc1C(=O)NCCC(=N)N1CCCCC1` [Ib1, (E)-N-(3-imino-3-(piperidin-1-yl)propyl)-1-methyl-4-(1-methyl-4-(4-(2-(quinolin-3-yl)vinyl)benzamido)-1H-pyrrole-2-carboxamido)-1H-pyrrole-2-carboxamide], for which the MIC99 was < 5 µg/mL in [1]; 5 to 25 µg/mL (≈ 7.61 to 38.1 µM) in the assay with C. neoformans (F10025); > 50 µg/mL in the assay with Candida auris (H.17.157); 25 to 50 µg/mL (≈ 38.1 to 76.1 µM) in assay [2]; 5 to 25 µg/mL (≈ 7.61 to 38.1 µM) in [8]. The results for the MIC80 in assay [3], in [4] and in assay [7] were > 100 µM, < 5 µM and < 5 µM, respectively. The IC50 in the assay on T. vaginalis (resorufin assay) is 1 to 5 µM. For the same molecule, in assay [5], the “% Normalised Fluorescence with polyAU RNA” value came out at 12%. For the same molecule, in [6], the “% Normalised Fluorescence with gDNA” value amounted to 23%. For the same molecule, in assay [7] (Alkyl Amidines and NH Pyrroles), the “S. aureus Selectivity Indices, Group” value is recorded as “D (D: SI > 10)”. The “S. aureus Selectivity Index (SI)” value in assay [7] came out at 11.

Turning to `Cn1cc(NC(=O)c2cc(NC(=O)c3ccc(/C=C/c4cnc5ccccc5c4)cc3)cn2C)cc1C(=O)NCCC(=N)N1CCOCC1` [Ib5, (E)-N-(3-imino-3-morpholinopropyl)-1-methyl-4-(1-methyl-4-(4-(2-(quinolin-3-yl)vinyl)benzamido)-1H-pyrrole-2-carboxamido)-1H-pyrrole-2-carboxamide], the MIC99 in assay [1] is < 5 µg/mL; with C. neoformans (F10025), 5 to 25 µg/mL (≈ 7.59 to 37.9 µM); in assay [2], 25 to 50 µg/mL (≈ 37.9 to 75.9 µM); in assay [8], 5 to 25 µg/mL (≈ 7.59 to 37.9 µM). For the same molecule, the MIC80 in [3] was > 100 µM; in assay [4], < 5 µM; in assay [7] it was < 5 µM. The “E. faecalis Selectivity Indices, Group” value in [4] (SI, IC50 (μM)/MIC80 (μM), HEK293 cytotoxicity, Alkyl Amidines and NH Pyrroles) was “C (Group C: 5 < SI <= 10)”. For the same molecule, in the assay on T. vaginalis (Alkyl Amidines and NH Pyrroles), the “T. vaginalis Selectivity Indices, Group” value is “C (Group C: 16 < SI <= 32)”. Further, the IC50 in the assay with T. vaginalis was 1 to 5 µM. The “% Normalised Fluorescence with polyAU RNA” value in [5] is given as 13%. Besides, the “% Normalised Fluorescence with gDNA” value in [6] stood at 22%. The “S. aureus Selectivity Indices, Group” value in assay [7] (Alkyl Amidines and NH Pyrroles) is on record as “D (D: SI > 10)”. Also, the “S. aureus Selectivity Index (SI)” value in assay [7] is reported as 27.

Consider `COCCOCC[N+](C)(C)CCNC(=O)c1cc(NC(=O)c2cc(NC(=O)c3ccc(/C=C/c4cnc5ccccc5c4)cc3)cn2C)cn1C` [Ic18, (E)-2-(2-methoxyethoxy)-N,N-dimethyl-N-(2-(1-methyl-4-(1-methyl-4-(4-(2-(quinolin-3-yl)vinyl)benzamido)-1H-pyrrole-2-carboxamido)-1H-pyrrole-2-carboxamido)ethyl)ethan-1-aminium], for which the MIC99 is < 5 µg/mL in [1]; 5 to 25 µg/mL in the assay with C. neoformans (F10025); > 50 µg/mL in the assay on Candida auris (H.17.157); 25 to 50 µg/mL in assay [2]; > 50 µg/mL in assay [8]. For the same molecule, the MIC80 in assay [3] is > 100 µM; in assay [4], < 5 µM; in assay [7] it was < 5 µM. In addition, the “E. faecalis Selectivity Indices, Group” value in assay [4] (SI, IC50 (μM)/MIC80 (μM), HEK293 cytotoxicity, Quaternary ammoniums) is “D (Group D: SI > 5)”. Moreover, the “E. faecalis Selectivity Index (SI)” value in [4] (SI, IC50 (μM)/MIC80 (μM), HEK293 cytotoxicity, numeric value) came to 5.1. For the same molecule, the “T. vaginalis Selectivity Indices, Group” value in the assay on T. vaginalis (Quaternary ammoniums) was “C (Group C: 1.5 < SI <= 3)”. Further, the IC50 with T. vaginalis fell in the range of 1 to 5 µM. The “S. aureus Selectivity Indices, Group” value in [7] (Quaternary ammoniums) is on record as “C (Group C: 5 < SI <= 10)”.

As to `CCCC/N=C(\CCNC(=O)c1cc(NC(=O)c2cc(NC(=O)c3ccc(/C=C/c4ccc(N(C)C)cc4)nc3)cn2C)cn1C)NCCCC` [Ia39, N-(5-((5-(((E)-3-(butylamino)-3-(butylimino)propyl)carbamoyl)-1-methyl-1H-pyrrol-3-yl)carbamoyl)-1-methyl-1H-pyrrol-3-yl)-6-((E)-4-(dimethylamino)styryl)nicotinamide], the MIC99 was 25 to 50 µg/mL (≈ 36 to 72.1 µM) in assay [1], 25 to 50 µg/mL (≈ 36 to 72.1 µM) in the assay with C. neoformans (F10025) and > 50 µg/mL in [8]. Moreover, the MIC80 in assay [3] was > 100 µM; in [4], 25 to 100 µM (≈ 17.3 to 69.4 µg/mL); in assay [7], < 5 µM. Further, the IC50 with T. vaginalis lay in the range of 5 to 50 µM. Besides, the “% Normalised Fluorescence with polyAU RNA” value in assay [5] was found to be 43%. Also, the “% Normalised Fluorescence with gDNA” value in assay [6] stood at 50%.

As for `[H]/N=C(\CCNC(=O)c1cc(NC(=O)c2cc(NC(=O)c3ccc(C=Cc4ccc5nonc5c4)cc3)cn2C)cn1C)NCCC1CCOCC1` [Ia45, (E)-4-(4-(2-(benzo[c][1,2,5]oxadiazol-5-yl)vinyl)benzamido)-N-(5-((3-imino-3-((2-(tetrahydro-2H-pyran-4-yl)ethyl)amino)propyl)carbamoyl)-1-methyl-1H-pyrrol-3-yl)-1-methyl-1H-pyrrole-2-carboxamide], the MIC99 in assay [1] is 25 to 50 µg/mL (≈ 36.1 to 72.3 µM); in the assay on C. neoformans (F10025) it was 5 to 25 µg/mL (≈ 7.23 to 36.1 µM); in [8] it was > 50 µg/mL. Further, the MIC80 in assay [3] was > 100 µM; in assay [4], > 100 µM; in assay [7], 5 to 25 µM (≈ 3.46 to 17.3 µg/mL). The IC50 with T. vaginalis lay within 5 to 50 µM. The “% Normalised Fluorescence with polyAU RNA” value in assay [5] is 3%. For the same molecule, the “% Normalised Fluorescence with gDNA” value in assay [6] was found to be 9%. Moreover, in assay [7] (Alkyl Amidines and NH Pyrroles), the “S. aureus Selectivity Indices, Group” value is “B (Group B: 3 < SI <= 5)”.
